In US8198325B2, “Unsaturated alkyl esters of 5-aminolevulinic acid, their preparation and their use” (Industry Foundation of Chonnam National University, priority 2006, dated 2012):

How the values were obtained:
[1] = test system: Squamous cell carcinoma (A431); test: Cytotoxicity test (cell survival), MTT assay, A431; format: cell-based; settings: 24 hours
Experimental: (§1) 3. Cytotoxicity Test (Cell Survival Test)
(§2) Cytotoxicity was conducted through an MTT assay (Chemicon, Serologicals Corporation, USA) as follows.
(§3) Cells were seeded at a density of 3×10^4 cells/well in 96-well plates (Nunc Do, Denmark).
(§4) When the cells were at a confluence of about 60˜70%, 24 hours after seeding, the media was exchanged for 100 μl of fresh, serum-free media containing various respective concentrations of ALA or ALA-ester, after which the cells were incubated for an additional 24 hours.
(§5) An MTT solution (0.5 mg/mL) was added in an amount of […] to each well, followed by incubation for 4 hours to form formazan crystals. A color-developing solution (isopropanol with 0.04 N HCl) was added in an amount of […] per well to solubilize the formazan crystals.
(§6) The plates were measured for absorbance at 570 nm using an ELISA reader (EMAX, Molecular Device, USA).
(3) Squamous Cell Carcinoma (A431)

[2] = test system: Human epidermal keratinocyte (HEK); test: Cytotoxicity test (cell survival), MTT assay, HEK; format: cell-based; settings: 24 hours; for MTT absorbance (OD): 570 nm; for Cell survival Avg (%) ± SD (%): Table 3; for activity at 10 µM / activity at 2000 µM / activity at 50 µM / activity at 100 µM / activity at 500 µM / activity at 1000 µM / activity at 5000 µM: Homo sapiens, Table 2, read-out: Cell survival (% of control C, in brackets); for activity at 10 µM: HEK001, 0.01 mM; for activity at 2000 µM: HEK2, 2 mM; for activity at 50 µM / activity at 100 µM / activity at 500 µM / activity at 1000 µM / activity at 5000 µM: Keratinocyte
Experimental: as §1, §2, §3, §4, §5, §6
(1) Human Epidermal Keratinocyte (HEK)
Cell survival of the human epidermal keratinocytes treated with ALA esters of the present invention and with ALA was compared. The results are summarized in Tables 1 and 2, which are represented in different manners depending on the measurements.

A431 cells = test: Fluorescence spectroscopy of PpIX synthesis in A431 cells (FIG. 1); format: cell-based; settings: 4 hours incubation, excitation 405 nm, emission 605 nm
Experimental: 4. Fluorescence Spectroscopy
The synthesis of PpIX, induced by ALA and unsaturated alkyl esters of ALA in cells and skin tissues, was quantified using fluorescence spectroscopy.
The intensity of PpIX was measured on a fluorescence spectrophotometer (Uvikon, model 943) with excitation at 408 nm.
Each cell line was plated at a density of 2×10^5 cells in a 10 cm^2-dish (Falcon), and when the cells reached a confluent state of 70˜80%, serum-free media containing various concentrations (0.001˜1 mM) of ALA or ALA esters was added to the cells, followed by incubation for 4 hours.
After being washed once with PBS, the cells were detached with a 50% methanol solution containing 1M […] (HClO4) and scraped off using a Costar cell scraper.
The cells thus harvested were incubated for 5 min and centrifuged.
The fluorescence of the supernatant thus obtained was determined using a spectrofluorometer with excitation at 405 nm and emission at 605 nm.
The results are graphed in FIGS. 1 and 2.

[3] = test system: Human dermal fibroblast (hF); test: Cytotoxicity test (cell survival), MTT assay, hF; format: cell-based; settings: 24 hours
Experimental: as §1, §2, §3, §4, §5, §6
(2) Human Dermal Fibroblast (hF)

[4] = test system: Malignant melanoma (TMX 13); test: Cytotoxicity test (cell survival), MTT assay, TXM 13; format: cell-based; settings: 24 hours
Experimental: as §1, §2, §3, §4, §5, §6
(4) Malignant Melanoma (TMX 13)

[5] = test system: skin of ICR mice (epidermis, sebaceous gland); test: Cell death in skin tissue after ointment and LED irradiation, H&E (FIGS. 9, 10); format: in vivo
Experimental: Ointments comprising ALA or the ALA esters of the present invention at various concentrations (5˜15%) were applied in a predetermined amount ([…]) to the back of shaved ICR mice.
1 and 4 hours after the application, the back was irradiated with LED visible light (dose 25 J/cm^2).
24, 48 and 72 hours after the irradiation, skin samples were taken from the back of the mice, stained with hematoxylin-eosin (H&E) and observed for cell death.

For `C=CCCCOC(=O)CCC(=O)CN` [ALA-4, 5-Aminolevulinic acid 4-pentenyl ester], the “Cell survival Avg (%) ± SD (%)” value ([1]; A431, 0.01 mM) was 101.68 ± 0.81%, the “Cell survival Avg (%) ± SD (%)” value ([1]; A431, 0.05 mM) was 102.51 ± 0.54% and the “Cell survival Avg (%) ± SD (%)” value ([1]; A431, 0.1 mM) was 93.24 ± 2.17%. The “Cell survival Avg (%) ± SD (%)” value ([1]; A431, 0.5 mM) was 80.91 ± 1.6%, the “Cell survival Avg (%) ± SD (%)” value ([1]; A431, 1 mM) was 80.11 ± 3.43% and the “Cell survival Avg (%) ± SD (%)” value ([1]; A431, 2 mM) was 84.57 ± 1.77%. The “MTT absorbance (OD)” value ([2]; 0.01 mM) was 2.8 OD, the “MTT absorbance (OD)” value ([2]; 0.05 mM) was 2.603 OD and the “Cell survival Avg (%) ± SD (%)” value ([2]; 0.05 mM) was 66.21 ± 0.59%. The “MTT absorbance (OD)” value ([2]; 0.1 mM) was 2.98 OD, the “Cell survival Avg (%) ± SD (%)” value ([2]; 0.1 mM) was 53.63 ± 0.51% and the “MTT absorbance (OD)” value ([2]; 0.5 mM) was 2.561 OD. For the same molecule, the “Cell survival Avg (%) ± SD (%)” value ([2]; 0.5 mM) was 50.17 ± 0.51%, the “MTT absorbance (OD)” value ([2]; 1 mM) was 2.475 OD and the “Cell survival Avg (%) ± SD (%)” value ([2]; 1 mM) was 57.17 ± 1.60%. For the same molecule, the “MTT absorbance (OD)” value ([2]; 2 mM) was 2.407 OD, the “Cell survival Avg (%) ± SD (%)” value ([2]; 2 mM) was 44.82 ± 3.43% and the “MTT absorbance (OD)” value ([2]; 5 mM) was 1.354 OD. The activity at 10 µM [2] was 77.3%, the activity at 2000 µM [2] was 66.3% and the activity at 50 µM ([2]; 0.05 mM) was 71.6%. It also gave an activity at 100 µM ([2]; 0.1 mM) of 82%, an activity at 500 µM ([2]; 0.5 mM) of 70.5% and an activity at 1000 µM ([2]; 1 mM) of 68.3%. The activity at 5000 µM ([2]; 5 mM) was 37.1%, the “PpIX synthesis compared with ALA” value (A431 cells) was “greater PpIX synthesis in A431 cells than did ALA” and the “Cell survival Avg (%) ± SD (%)” value ([3]; 0.01 mM) was 101.13 ± 13.45%. The “Cell survival Avg (%) ± SD (%)” value ([3]; 0.05 mM) was 114.49 ± 17.1%, the “Cell survival Avg (%) ± SD (%)” value ([3]; 0.1 mM) was 103.35 ± 14.09% and the “Cell survival Avg (%) ± SD (%)” value ([3]; 0.5 mM) was 95.81 ± 10.6%. For the same molecule, the “Cell survival Avg (%) ± SD (%)” value ([3]; 1 mM) was 100.32 ± 6.36%, the “Cell survival Avg (%) ± SD (%)” value ([3]; 2 mM) was 93.13 ± 8.07% and the “Cell survival Avg ± SD (%)” value ([4]; TXM 13, 0.01 mM) was 96.3 ± 14.69%. The “Cell survival Avg ± SD (%)” value ([4]; TXM 13, 0.05 mM) was 83.42 ± 12.09%, the “Cell survival Avg ± SD (%)” value ([4]; TXM 13, 0.1 mM) was 72.55 ± 9.25% and the “Cell survival Avg ± SD (%)” value ([4]; TXM 13, 0.5 mM) was 75.01 ± 13.79%. The “Cell survival Avg ± SD (%)” value ([4]; TXM 13, 1 mM) was 60.95 ± 8.31% and the “Cell survival Avg ± SD (%)” value ([4]; TXM 13, 2 mM) was 49.85 ± 53.24%.
With `C=CCCCCOC(=O)CCC(=O)CN` [ALA-6, 5-Aminolevulinic acid 5-hexenyl ester] the “Cell survival Avg (%) ± SD (%)” value ([1]; A431, 0.01 mM) was 101.04 ± 0.88%, the “Cell survival Avg (%) ± SD (%)” value ([1]; A431, 0.05 mM) was 91.32 ± 3.42% and the “Cell survival Avg (%) ± SD (%)” value ([1]; A431, 0.1 mM) was 86.8 ± 3.22%. The “Cell survival Avg (%) ± SD (%)” value ([1]; A431, 0.5 mM) was 84.16 ± 5.58%, the “Cell survival Avg (%) ± SD (%)” value ([1]; A431, 1 mM) was 88.47 ± 4.59% and the “Cell survival Avg (%) ± SD (%)” value ([1]; A431, 2 mM) was 66.21 ± 4.43%. The “MTT absorbance (OD)” value ([2]; 0.01 mM) was 3.13 OD, the “Cell survival Avg (%) ± SD (%)” value ([2]; 0.01 mM) was 106.44 ± 0.37% and the “MTT absorbance (OD)” value ([2]; 0.05 mM) was 3.413 OD. For the same molecule, the “Cell survival Avg (%) ± SD (%)” value ([2]; 0.05 mM) was 77.97 ± 0.88%, the “MTT absorbance (OD)” value ([2]; 0.1 mM) was 3.18 OD and the “Cell survival Avg (%) ± SD (%)” value ([2]; 0.1 mM) was 69 ± 3.42%. The “MTT absorbance (OD)” value ([2]; 0.5 mM) was 2.521 OD, the “Cell survival Avg (%) ± SD (%)” value ([2]; 0.5 mM) was 61.39 ± 3.22% and the “MTT absorbance (OD)” value ([2]; 1 mM) was 2.548 OD. The “Cell survival Avg (%) ± SD (%)” value ([2]; 1 mM) was 62 ± 5.58%, the “MTT absorbance (OD)” value ([2]; 2 mM) was 2.306 OD and the “Cell survival Avg (%) ± SD (%)” value ([2]; 2 mM) was 62 ± 1.59%. For the same molecule, the “MTT absorbance (OD)” value ([2]; 5 mM) was 1.388 OD, the activity at 10 µM [2] was 91.2% and the activity at 2000 µM [2] was 67.3%. The activity at 50 µM ([2]; 0.05 mM) was 99.4%, the activity at 100 µM ([2]; 0.1 mM) was 92.7% and the activity at 500 µM ([2]; 0.5 mM) was 73.4%. For the same molecule, the activity at 1000 µM ([2]; 1 mM) was 74.3%, the activity at 5000 µM ([2]; 5 mM) was 40.2% and the “PpIX synthesis compared with ALA” value (A431 cells) was “greater PpIX synthesis in A431 cells than did ALA”. The “Sebaceous gland morphology after irradiation” value ([5]; 24 hours after visible light 25 J/cm^2, FIG. 10) was “destroyed partially or wholly”, the “Epidermis histology (H&E) after irradiation” value ([5]; 48 hours after visible light 25 J/cm^2, FIGS. 9B and 9C) was “both necrosis and rejuvenation” and the “Cell survival Avg (%) ± SD (%)” value ([3]; 0.01 mM) was 113.29 ± 13.51%. For the same molecule, the “Cell survival Avg (%) ± SD (%)” value ([3]; 0.05 mM) was 98.47 ± 13.03%, the “Cell survival Avg (%) ± SD (%)” value ([3]; 0.1 mM) was 92.42 ± 13.86% and the “Cell survival Avg (%) ± SD (%)” value ([3]; 0.5 mM) was 91.41 ± 9.04%. The “Cell survival Avg (%) ± SD (%)” value ([3]; 1 mM) was 80.78 ± 5.6%, the “Cell survival Avg (%) ± SD (%)” value ([3]; 2 mM) was 86.12 ± 5.37% and the “Cell survival Avg ± SD (%)” value ([4]; TXM 13, 0.01 mM) was 92.05 ± 9.09%. For the same molecule, the “Cell survival Avg ± SD (%)” value ([4]; TXM 13, 0.05 mM) was 99.41 ± 8.25%, the “Cell survival Avg ± SD (%)” value ([4]; TXM 13, 0.1 mM) was 81.45 ± 6.38% and the “Cell survival Avg ± SD (%)” value ([4]; TXM 13, 0.5 mM) was 77.18 ± 8.17%. The “Cell survival Avg ± SD (%)” value ([4]; TXM 13, 1 mM) was 76.06 ± 6.81% and the “Cell survival Avg ± SD (%)” value ([4]; TXM 13, 2 mM) was 53.24 ± 6.8%.
